Reference: patent publication US12281329B2, “Compositions and methods for immune cell modulation in adoptive immunotherapies” (Fate Therapeutics, Inc., priority 2016, dated 2025)

Columns and labels:
NK cells [1] = test: NK cell intracellular cytokine staining after IL-12+IL-18 or K562 stimulation; format: cell-based, human; settings: 7 days 10 ng/ml IL-15 + 5 uM CHIR99021; 4-hour IL12+IL18 or K562 stimulation; vs primed or 7 day IL15 only
Procedure: NK Cell Intracellular Cytokine Staining: CD3/CD9 depleted PBMC were cultured for 7 days with 10 ng/ml IL-15 and 5 uM CHIR99021 or vehicle control. On culture day 7 cells were washed and cultured separately with IL-12 and IL-18 (long/ml and 50 ng/ml, respectively) (Life Technologies) or with K562 cells at a 1:1 ratio. Golgistop (BD Biosciences) was included in the culture media to facilitate intracellular detection of cytokines. After a 4 hour culture period, cells were stained for cell surface antigens and fixed prior to intracellular staining with antibodies to IFN-gamma and TNF-alpha (BD Biosciences). Staining was performed using the BD Cytofix/Cytoperm™ Kit according to the manufacturer's instructions.
Also analyzed was the effect of GSK3 inhibitor treatment to NK cell cytokine response. PBMC obtained directly from donors were cultured after CD3/CD9 depletion for 7 days with 10 ng/ml IL-15 and 5 uM CHIR99021, or with IL15 only. On day 7, cells were washed and cultured separately with IL-12 (long/ml) and IL-18 (50 ng/ml), or with K562 cells at a 1:1 ratio for stimulation. After a 4-hour culture period, cells were stained for cell surface antigens and fixed prior to intracellular staining with antibodies to IFNγ and TNFα, respectively.

NK cells [2] = test: NK cell culture with modified K562 feeder cells: proliferation and subtype skewing; format: cell-based, human; settings: 7 days
Procedure: CD3/19 depleted PBMCs were cultured for 7 days with modified K562 feeder cells in the presence of DMSO (Vehicle), 0.1 uM GSK3i CHIR99021 alone (C), or a combination of 0.1 uM GSK3i CHIR99021, 40 nM MEKi PD0325901, and 1 nM Rapamycin (CPR).

SKOV-3 cells = test: In vivo tumor clearing of luciferase-expressing SKOV-3 cells by modulated NK cells with Herceptin; design: species or system NSG mice
Excerpt: In vivo tumor clearing using Modulated NK cells: NSG mice were irradiated with 300 rads one day prior to intraperitoneal transplant of 2×10^5 luciferase-expressing SKOV-3 cells. 5 days after transplant of the ovarian carcinoma cells, mice were either left untreated, treated with Herceptin only, or treated with Herceptin, IL-15, and NK cells cultured for 7 days with IL-15 and CHIR99021. Luciferase-expressing SKOV-3 cells were imaged on day 21 using the IVIS imaging system.
Moreover, the in vivo tumor clearance ability of GSK3i cultured NK cells using the process provided herein was also tested. NSG mice were irradiated with 300 rads one day prior to intraperitoneal transplant of luciferase-expressing SKOV-3 cells. 5 days after the ovarian carcinoma cell transplant, the mice were either left untreated, treated with Herceptin only, or treated with Herceptin, IL-15, and NK cells cultured for 7 days with IL-15 and CHIR99021. […]
The in vivo tumor clearance ability of GSK3i cultured NK cells using the process provided herein was then compared to overnight primed CD3/CD19 depleted PBMC, and CD3/CD19 depleted PBMC cultured for 7 days with IL-15 and DMSO. […] Luciferase-expressing SKOV-3 cells were quantified by measuring luciferase activity using the IVIS imaging system.

HER2+ SKOV3 cells = test: NK cell killing and Herceptin ADCC of SKOV3 cells; format: cell-based, human
Procedure: NK Cell Cytotoxicity Assay: Cytotoxicity was determined using a flow cytometry based method based on a previously published method (Kim, et al. J Immunol Methods. 2007 Aug. 31; 325(1-2): 51-66). NK cells were co-cultured with e450-proliferation dye-labelled targets for 4 hours. CellEvent™ Caspase-3/7 Green Flow Cytometry Assay Kit (Lifer Technologies) was used to assay for cell death among target cells, and samples were read on a BD LSRFortessa cytometer. Killing of SKOV-3 targets was quantified using the Incucyte Zoom instrument. SKOV-3 cells were transiently transduced with NucLight-Red BacMam reagent (Essen Biosciences) and co-cultured with the indicated NK cell populations for 74 hours, with images taken on two hour intervals. Caspase 3/7 activity was monitored to indicate target cells undergoing apoptosis using the CellEvent™ Caspase-3/7 Green Detection Reagent. The number of target cells was normalized to SKOV-3 cells cultured alone, and targets undergoing apoptosis were quantified based on caspase 3/7 activity.
In a similar fashion, SKOV3 cells were treated with NK cells derived from overnight culture with IL15, 7 day culture with IL15 and 7 day culture with IL15 and GSK3i. […]

Structure (SMILES): Cc1c[nH]c(-c2cnc(NCCNc3ccc(C#N)cn3)nc2-c2ccc(Cl)cc2Cl)n1 [CHIR99021]
- IFNγ production in NK cells (NK cells [1]): enhanced
- TNFα production in NK cells (NK cells [1]): enhanced
- proliferation of the activated NK cells overall (NK cells [2]; K562 feeder modified to express IL21 and 41BBL, vs vehicle): increased
- number of CD57+NK cells (NK cells [2]; modified K562 feeder cells, vs vehicle control): highest
- in vivo SKOV-3 ADCC killing (luciferase activity) (SKOV-3 cells; 100 ug Herceptin + 2.5×10^6 cells, vs overnight primed and 7 day IL-15 + DMSO): highly and consistently effective
- tumor-suppressive effects of Herceptin antibody treatment (SKOV-3 cells; NK cells cultured 7 days with IL-15 and CHIR99021, plus Herceptin and IL-15, imaged Day 21 post-transplant): enhances
- killing of SKOV3 cells (killing rate and killing efficiency; elimination, caspase 3/7 peak) (HER2+ SKOV3 cells; 7 day IL15 + GSK3i vs overnight IL15 and 7 day IL15): most effective
- ADCC killing of SKOV3 with HER2 antibody (Herceptin) (HER2+ SKOV3 cells; NK cells 7 days IL15 + GSK3i vs overnight IL15 and 7 day IL15): enhanced
